Reference: patent publication US20240018132A1, “5-HYDROXY-1,4-NAPHTHALENEDIONE FOR USE IN THE TREATMENT OF CANCER” (GODAVARI BIOREFINERIES LIMITED, priority 2020, published 2024)

System: Human lymphocytes
Experiment: Lymphocyte assay (MTT on normal cells)
Assay type: cell-based
Conditions: human peripheral blood lymphocytes, MTT procedure; for IC50: Lymphocyte
Method in brief: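 Lymphocytes from human peripheral blood isolated by density-gradient centrifugation on HiSep LSM 1077, washed in D.P.B.S; only cells with purity and viability above 95% used. Seeded at 0.7 million/ml and assessed by MTT.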

SMILES | IC50 | Activity on Lymphocytes (IC50)
O=C1C(c2ccc3c(c2)OCO3)=CC(=O)c2c(OCCCCN3CCOCC3)cccc21 [Formula 2, 5-(4-morpholinobutoxy)-2-(benzo[d][1,3]dioxol-6-yl)naphthalene-1,4-dione] | 11.5 µM | 
COc1ccc(NC2=CC(=O)c3c(OCCN4CCOCC4)cccc3C2=O)cc1OC [Formula 40, 5-(2-morpholinoethoxy)-2-(3,4-dimethoxyphenylamino) naphthalene-1,4-dione] | 13.2 µM | 
O=C1C(NC2CCCCC2)=CC(=O)c2c(OCCN3CCOCC3)cccc21 [Formula 52] |  | No activity
